Source: patent US7399608B2, “Microbial detection and quantification” (Kimberly-Clark Worldwide, Inc., priority 2003, dated 2008)

How the values were obtained:
gram-positive bacteria = experiment: Dye solution added to bacteria spot on SCOTT towel
Procedure: A new potential for the Reichardt's dye-based bacterial indicator was realized through testing of liquid dye with bacteria on a substrate rather than substrate-bound dye coming into contact with liquid bacteria (Example 5). This experiment focused on determining how the dye solution responds to known concentrations of bacteria residing on a surface. 100 μl of 10^8 CFU/ml gram-positive bacteria was placed on a SCOTT® towel (FIG. 9A). To this spot was added a drop of the Reichardt's dye dissolved in acetonitrile (160 mg in 10 ml acetonitrile) (9B).
For comparison, a spot of dye was dried onto the towel and the same amount of bacteria was added. […] Additional drops of the dye were added to the spot of bacteria (9C), and de-colorization continued until the fourth drop, at which point the purple color persisted (9D). Attempts to restore the dye color on the dye-coated SCOTT® towel by adding acetonitrile using a pipette were unsuccessful (9E).

S. aureus [1] = experiment: Solvent choice for Reichardt's dye coatings on SCOTT towels; set-up: species or system Staphylococcus aureus; details: coated SCOTT towel, 100 μl aliquots of S. aureus
Procedure: Solutions of Reichardt's dye in acetonitrile, isopropanol, and xylenes were prepared and the solutions were used to coat SCOTT® kitchen rolls towels and allowed to air-dry (FIGS. 12A and 12D).

[2] = tested on: Herpes Simplex Virus 1 (HSV-1); experiment: Virus detection with Reichardt's dye-coated stickers; details: 50-microliter droplet, 3 minutes
E. coli [3] = experiment: Dry sample testing on dye-coated towel; set-up: species or system Escherichia coli; details: dry colony rubbed onto pre-moistened dye coated SCOTT towel
Procedure: A test using the Reichardt's dye coated paper towel with a “dry” bacteria sample, not in solution was carried out. A dry sample of a colony of E. coli bacteria lifted off an agar petri dish containing a series of growing cultures was used. This dry sample was then rubbed onto a pre-moistened dye coated SCOTT® paper towel. The area where the colony was placed and rubbed turned colorless within 1-5 seconds. This is a similar to how a wet wipe towel would be used and it performed well.

P. aeruginosa = experiment: Quantification of bacterial contamination by Delta E (hand-held spectrophotometer); set-up: species or system Psuedomonas aeruginosa; details: label substrate, log CFU/ml (actual) 6
From the text: More specifically, indicator strips coated with Reichardt's dye were exposed with decreasing amounts of the bacteria aliquots. A hand-held spectrophotometer was used to after application of each aliquot to determine “Delta E” value (calculated using L*, A*, and B* values) for each CFU/mL concentration. The results are set forth below in Table 4 (for paper) and Table 5 (for label). From the above, standard detection curves were generated as shown in FIGS. 5-7 for S. aureus, P. aeruginosa, and E. coli, respectively. As shown, each type of bacteria changed the color of the dye-treated substrate in a slightly different way, creating a unique standard curve. Thereafter, drops of unknown bacteria concentrations were placed on the stickers and a spectrophotometer was used to measure the “Delta E” of the resulting color. The numerical values obtained for each unknown sample set forth below in Tables 6-7. […] Although a few of the results were not completely accurate, the present inventors believe that improving the uniformity of the coating would further enhance detection accuracy.

[4] = tested on: bacteria in aged chicken juice; experiment: Dried dye coating on ceramic surface with or without TWEEN 80, aged chicken juice; details: 80 mg/10 mL acetonitrile with 200 μL TWEEN 80, dried on ceramic, drop of aged chicken juice
From the text: This solution was then used to coat a ceramic surface (FIG. 11) and allowed to air dry. […] After drying, a drop of aged chicken juice known to have a high bacterial count was placed on the each coating area (11B). […] Furthermore, the addition of TWEEN® surfactant allowed for easy removal of the dye from the surface.

Influenza A = experiment: Virus detection with Reichardt's dye-coated stickers
[5] = Reichardt's dye indicator with bacterial cell-wall components; details: 160 mg in 10 mL acetonitrile
measles = experiment: Virus detection with Reichardt's dye-coated stickers
E. coli [6] = experiment: Cyclodextrin enhancement: coated towel with bacteria; set-up: species or system Escherichia coli; details: hydroxypropyl-beta-cyclodextrin coated towel
Procedure: A SCOTT® paper towel was first coated with hydroxypropyl-beta-cyclodextrin (from Cerestar International, Hammond, Ind., USA) in solution in water (1 gram in 20 ml) by dipping and air-drying at ambient temperature. When dry the coated paper towel was treated with a solution of Reichardt's dye in isopropanol (1 weight percent) and allowed to air-dry. The dried towel was a purple/blue in color. Here the cyclodextrin hinders the crystallization of the dye allowing a more vivid color of the dye to occur on the paper towel. This coated towel was used in a test with gram-negative bacteria (E. coli) and found to turn colorless in less than 5 seconds when an aliquot of 100 microliters of media containing 10,000 CFU/ml was applied to the towel. […] Thus by hindering the dye from crystallizing, the dye is believed to be present on the substrate as single molecules and therefore the sensitivity of the dye to bacteria levels increases. The inventors believe that by careful use of a coating (e.g. cyclodextrin) on the towel a mono-molecular coating of dye will occur on the surface of the substrate and maximum sensitivity will occur.

S. aureus [7] = experiment: Semi-quantification of bacterial contamination on dye-treated paper; set-up: species or system Staphylococcus aureus
Procedure: The color differences at lower concentrations were less distinct, particularly for the brush-coated sheet. A blind study was then conducted. […] Concentrations of these three drops were unknown to two of the experiment participants. After approximately 2 minutes, the drops were removed and blotted. Using the control regions, the concentrations of each sample were each visually estimated by these two persons. Both persons correctly estimated the concentration of the first sample to be 10^6 CFU/mL. […] The persons, however, incorrectly estimated the third sample to be 10^3 CFU/mL. […] The present inventors believe, however, that the concentration of the chromogen and uniformity of the coating may be readily selected to achieve accurate results at such low concentrations.

## [O-]c1c(-c2ccccc2)cc(-[n+]2c(-c3ccccc3)cc(-c3ccccc3)cc2-c2ccccc2)cc1-c1ccccc1 [Reichardt's dye, 2,6-diphenyl-4-(2,4,6-triphenylpyridinio)-phenolate]
gram-positive bacteria; 160 mg in 10 ml acetonitrile dropped on 100 μl of 10^8 CFU/ml on SCOTT towel
  de-colorization of dye solution added to bacteria spot: immediately de-colorized
gram-positive bacteria; 160 mg in 10 ml acetonitrile, 100 μl of 10^8 CFU/ml
  drop at which the purple color persisted: fourth drop
gram-positive bacteria; dye spot dried on cellulosic towel, same amount of bacteria
  time to de-colorize when bacteria are placed onto dye dried on towel: several minutes
S. aureus [1]
  color change of coating made from acetonitrile solution: rapid de-colorization
  color change of coatings made from isopropanol and xylenes solutions: No visible color change
[2]
  de-colorization of sticker by undiluted virus: stronger de-colorization of the sticker than that observed for Rhinovirus and Polio virus
E. coli [3]
  time to turn colorless: 1 to 5 s
P. aeruginosa
  Delta E, unknown sample: 4.1002
[4]
  de-colorization faster with TWEEN 80 surfactant than without: 20 to 30 s
Influenza A
  de-colorization of sticker by undiluted virus: less than that observed for the other viruses
[5]
  de-colorization by the other cell-wall compounds (LPS, detoxified LPS, lipoteichoic acid): eventual de-colorization
[5]; both experimental set-ups
  de-colorization by muramic acid: near instantaneous de-colorization
measles
  de-colorization of sticker by undiluted virus: less than that observed for the other viruses
E. coli [6]; 1 weight percent dye in isopropanol
  lowest bacteria concentration at which decolorization occurred: 500 CFU/ml
E. coli [6]; 1 weight percent dye in isopropanol, 100 microliters of 10,000 CFU/ml
  time to turn colorless: less than 5 seconds
E. coli [6]; 500 CFU/ml
  time to decolorize: ≤ 15 s
S. aureus [7]; actual 10^4 CFU/mL, dip-coated sheet
  visually estimated concentration, blind study third sample: 10^3 CFU/mL
S. aureus [7]; actual 10^5 CFU/mL, brush-coated sheet
  visually estimated concentration, blind study second sample: 10^5 CFU/mL
S. aureus [7]; actual 10^6 CFU/mL, dip-coated sheet
  visually estimated concentration, blind study first sample: 10^6 CFU/mL
